Results: patent publication US9326961B2, “Diet and methods for improving learning capacity, mood and behavior in mammals” (COAPE, LTD, priority 2010, dated 2016)

What was measured:
[1] = tested on: horse; details: horses, cited from earlier work
[2] = tested on: dogs (slow learners); test: Discrimination learning, T-maze test (Test B) after three weeks on assigned diet; format: in vivo, dog; details: diet supplementation, compared with adding tryptophan to the diet
Procedure: To determine the effect of diet on learning capability, 81 dogs of various ages, types and sex were recruited from dog training clubs and colleagues of the experimenter; however, one dog had to be withdrawn from the study. Inclusion into the study required that the dogs were not receiving any veterinary treatment or medication for behavioral problems. All dogs were in good health, having been fully vaccinated and wormed. Dogs were tested in simple tests that required no lengthy training time. […] Each dog's baseline learning capability was established on its performance in Test A. It was determined that 15 of the dogs were fast learners, while 65 were slow learners.
Each owner was supplied an information sheet advising how to introduce the new diet over a period of days, to ensure that no digestion problems occurred from a sudden change of food. The dogs remained on the assigned diet for a period of three weeks and their learning capability was re-evaluated according to their performance in Test B. Latency to learn the task was used as a measure of learning capability and specific displacement activities were monitored to evaluate the effect on various behavior patterns. […]
The dogs' latency to learn was measured in the time it took them, to achieve success, measured as 100% of correct responses in five consecutive trials. […]

Structure (SMILES)	toxicity ([1]; high doses given orally, presumably toxic hindgut metabolite)	effect on endurance capacity ([1]; high doses)	behavioral effect ([1]; low doses)	enhancing serotonin levels in the brain, as measured by improved behavior and learning ability [2]
N[C@@H](Cc1c[nH]c2ccccc12)C(=O)O [Tryptophan]	may cause hemolytic anemia	reduce endurance capacity	mild excitement	–
CC(C)C[C@H](N)C(=O)O [leucine]	–	–	–	as effective in enhancing serotonin levels in the brain as adding tryptophan to the diet
